Data from patent US20240034743A9, “TRICYCLIC COMPOUNDS AS EGFR INHIBITORS” (QILU PHARMACEUTICAL CO., LTD., priority 2020, published 2024).
Marks after values point to notes of the source that are not given here.

Assays:
EGFR WT (wild type EGFR) = EGFR WT (wild type EGFR) (Homo sapiens (Human), UniProt P00533); experiment: In vitro enzymatic TR-FRET (HTRF KinEASE-TK) kinase assay, EGFR WT; format: biochemical; settings: kinase activity, TR-FRET; read-out: EGFR (WT) IC50
How it was run: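 Recombinant enzyme preincubated with compound 10 min at room temperature in kinase buffer with 5 mM MgCl2, 1 mM MnCl2, 1 mM DTT. Biotinylated TK substrate plus ATP then added for 40 min. HTRF detection (Sa-XL665, Cryptate antibody) for 1 h; IC50 from 665/615 nm ratio.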

EGFR L858R/T790M/C797S = EGFR L858R/T790M/C797S (Homo sapiens (Human), UniProt P00533, C797S/L858R/T790M); experiment: In vitro enzymatic TR-FRET (HTRF KinEASE-TK) kinase assay, EGFR L858R/T790M/C797S; format: biochemical; settings: kinase activity
Description: (I) In Vitro Enzymatic Experiment for EGFR WT and EGFR L858R/T790M/C797S
In the assay, the inhibition effect of the compound on the kinase activity of EGFR WT (wild type EGFR) and EGFR L858R/T790M/C797S was tested by adopting a time-resolved fluorescence resonance energy transfer (TR-FRET) method, and half maximal inhibitory concentration IC50 of the compound on the kinase activity of EGFR was obtained.
EGFR recombinase and EGFR L858R/T790M/C797S recombinase, purchased from Signalchem.
HTRF KinEASE-TK kit, purchased from Cisbio.
DTT, MnCl2, and MgCl2, purchased from Sigma.
ATP, purchased from Promega.
Brigatinib, purchased from Selleck.
1) 1× working solution was prepared: 5 mM MgCl2; 1 mM DTT; 1 mM MnCl2 and 1× kinase buffer (in kit).
2) […] of gradiently-diluted compound was transferred to a 384-well plate using Echo 550 (Labcyte).
3) 5 μL of 2× EGFR WT or EGFR L858R/T790M/C797S recombinase solution was added to the 384-well plate, and the plate was incubated at room temperature for 10 min.
4) 5 μL of 2× TK-substrate-biotin substrate solution (containing ATP) was added to the 384-well plate, and the plate was incubated at room temperature for 40 min.
5) 5 μL of assay solution containing Sa-XL 665 HTRF and 5 μL of TK-antibody-Cryptatewas were added to the plate, and the plate was incubated at room temperature for 1 h.
6) The fluorescence signal values at 615 nm and 665 nm were measured for each well using an Envision microplate reader (PerkinElmer).
7) The ratio of fluorescence signal values at 665 nm and 615 nm was calculated for each well.
8) Data analysis was performed using GraphPad Prism software to give the IC50 for compounds.

A431 cells (EGFR WT) = experiment: A431 cell proliferation inhibition assay (CellTiter-Glo); format: cell-based; settings: Homo sapiens, A-431; cell proliferation, 72 h, CellTiter-Glo; read-out: A431 EGFR WT IC50
How it was run: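 Seeded cells grown 24 h, then exposed 72 h (37° C, 5% CO2) to graded compound dilutions at 0.1% DMSO final. Viability read by CellTiter-Glo luminescence after 30 min at room temperature; IC50 fitted from the dose curve.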

[1] = system: Ba/F3_Del19/T790M/C797S cells; experiment: Ba/F3_Del19/T790M/C797S cell proliferation inhibition assay (CellTiter-Glo); format: cell-based; settings: Mus musculus, BaF3; cell proliferation, 72 h, CellTiter-Glo; read-out: Ba/F3 (Del19/T790M/C797S) IC50
How it was run: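 Ba/F3 cells carrying EGFR Del19/T790M/C797S were seeded at 700 cells/well and exposed to serially diluted compound (0.1% DMSO final) for 72 h at 37° C. Viability was read by CellTiter-Glo luminescence to give IC50.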

[2] = system: Ba/F3_L858R/T790M/C797S cells; experiment: Ba/F3_L858R/T790M/C797S cell proliferation inhibition assay (CellTiter-Glo); format: cell-based; settings: Mus musculus, BaF3; cell proliferation, 72 h, CellTiter-Glo; read-out: Ba/F3 (L858R/T790M/C797S) IC50
How it was run: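 Ba/F3 cells engineered to carry EGFR L858R/T790M/C797S, seeded at 700 cells/well, exposed to serially diluted compound (0.1% DMSO final) for 72 h at 37 °C, 5% CO2. Viability read by CellTiter-Glo luminescence after 30 min at room temperature; IC50 from dose-response fit.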

[3] = system: PC9 (Del19/T790M/C797S) cells; experiment: In vivo efficacy study, PC9 (Del19/T790M/C797S) xenograft; parameters: species or system BALB/c-nu mice; settings: 21 consecutive days; for Tumor volume (mm^3): mean ± SEM; for Tolerability in mice (in words): po
Description: (III) In Vivo Efficacy Study Experiment
The anti-tumor activity and toxic and side effects of compound 53 and compound 27 administered orally for 21 consecutive days on PC9 (Del19/T790M/C797S) were evaluated.
SPF-grade and female BALB/c-nu mice, purchased from Beijing Vital River Laboratory Animal Technology Co., Ltd.
PC9 (Del19/T790M/C797S) cells, self-constructed by Qilu Pharmaceutical Co., Ltd.
PC9 (Del19/T790M/C797S) cells were cultured in RPMI 1640 medium containing 10% FBS at 37° C. in a 5% carbon dioxide incubator; and the cells in exponential growth phase were collected for inoculation.
Under sterile conditions, a cell suspension of in vitro cultured PC9 (Del19/T790M/C797S) was taken, centrifuged to adjust the cell concentration to 3×10^7 cells/mL, and inoculated in mice at the right side armpit (0.1 mL/mouse), and the day of inoculation was defined as day 0.
3.3 Tumor Grouping, Administration and Measurement
a. When the mean tumor volume was about 150 mm^3, 35 mice with moderate tumor volume were selected for enrollment and randomized into 5 groups according to tumor volume: G1: vehicle control group, G2: compound 53 (15 mg/kg), G3: compound 53 (60 mg/kg), G4: compound 27 (15 mg/kg) and G5: compound 27 (35 mg/kg), 7 mice/group.
b. The animals were grouped and then started to be administrated, and the volume for oral administration (po) was 10 mL/kg; the weighing was performed once daily with consecutively 21-day administration; the tumor diameters were measured 2 times a week.
c. Tumor volume (TV): tumor volumes were measured 2 times a week to observe tumor mass volume changes and growth rate. Tumor volume V=1/2×a×b^2, where a and b represent tumor long diameter and short diameter, respectively. The growth inhibition effect of the compounds on tumor tissues is evaluated by using a tumor growth inhibition TGI (%). TGI (%)=[1−(average tumor volume of a certain administration group—average tumor volume at the day of grouping in the administration group)/(average tumor volume of negative control group—average tumor volume on the day of grouping in the negative control group)]×100%. The data of the administration group and the negative control group were obtained on the same day.
d. The mice's living status, including appearance signs, general behavioral activities, mental status, food consumption, respiratory status, fecal and urinary traits, injection site conditions and other toxic manifestations, was closely observed during the course of the experiment.
e. After the endpoint was reached, the mice were euthanized, and animal carcasses were frozen and stored in a freezer and transferred to qualified medical waste treatment organization for disposal.

EGFR L858R/T790M/C797S, sequence (P00533 25-1210 T790M/C797S/L858R): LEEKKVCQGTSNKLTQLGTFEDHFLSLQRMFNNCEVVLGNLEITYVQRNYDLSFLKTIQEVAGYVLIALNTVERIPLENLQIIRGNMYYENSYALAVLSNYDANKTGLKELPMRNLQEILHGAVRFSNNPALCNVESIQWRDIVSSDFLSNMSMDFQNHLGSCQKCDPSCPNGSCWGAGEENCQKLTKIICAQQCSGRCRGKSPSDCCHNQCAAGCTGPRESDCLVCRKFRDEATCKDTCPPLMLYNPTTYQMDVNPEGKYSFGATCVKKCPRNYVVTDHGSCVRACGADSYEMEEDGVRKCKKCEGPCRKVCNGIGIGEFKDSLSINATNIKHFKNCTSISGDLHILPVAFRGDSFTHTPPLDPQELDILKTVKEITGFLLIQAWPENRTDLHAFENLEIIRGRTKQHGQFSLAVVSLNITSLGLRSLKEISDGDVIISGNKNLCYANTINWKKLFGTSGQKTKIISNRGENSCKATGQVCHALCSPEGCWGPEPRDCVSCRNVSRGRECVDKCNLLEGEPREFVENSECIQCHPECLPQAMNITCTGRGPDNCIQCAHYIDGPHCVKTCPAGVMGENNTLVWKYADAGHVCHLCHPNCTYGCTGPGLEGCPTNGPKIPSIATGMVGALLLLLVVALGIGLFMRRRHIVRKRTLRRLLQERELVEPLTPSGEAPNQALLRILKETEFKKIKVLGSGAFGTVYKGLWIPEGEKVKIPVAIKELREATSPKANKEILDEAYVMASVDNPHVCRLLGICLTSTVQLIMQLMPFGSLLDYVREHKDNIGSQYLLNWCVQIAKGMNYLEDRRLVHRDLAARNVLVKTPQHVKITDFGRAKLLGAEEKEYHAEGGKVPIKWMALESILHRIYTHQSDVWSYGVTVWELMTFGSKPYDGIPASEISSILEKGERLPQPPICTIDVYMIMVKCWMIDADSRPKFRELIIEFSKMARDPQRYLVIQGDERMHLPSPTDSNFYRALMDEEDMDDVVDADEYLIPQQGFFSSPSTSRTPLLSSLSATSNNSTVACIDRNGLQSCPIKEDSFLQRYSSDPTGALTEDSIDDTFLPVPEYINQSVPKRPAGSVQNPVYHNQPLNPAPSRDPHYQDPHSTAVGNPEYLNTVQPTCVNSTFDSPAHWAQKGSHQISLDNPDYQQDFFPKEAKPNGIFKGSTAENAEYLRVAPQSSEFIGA
EGFR WT (wild type EGFR), sequence (P00533 25-1210): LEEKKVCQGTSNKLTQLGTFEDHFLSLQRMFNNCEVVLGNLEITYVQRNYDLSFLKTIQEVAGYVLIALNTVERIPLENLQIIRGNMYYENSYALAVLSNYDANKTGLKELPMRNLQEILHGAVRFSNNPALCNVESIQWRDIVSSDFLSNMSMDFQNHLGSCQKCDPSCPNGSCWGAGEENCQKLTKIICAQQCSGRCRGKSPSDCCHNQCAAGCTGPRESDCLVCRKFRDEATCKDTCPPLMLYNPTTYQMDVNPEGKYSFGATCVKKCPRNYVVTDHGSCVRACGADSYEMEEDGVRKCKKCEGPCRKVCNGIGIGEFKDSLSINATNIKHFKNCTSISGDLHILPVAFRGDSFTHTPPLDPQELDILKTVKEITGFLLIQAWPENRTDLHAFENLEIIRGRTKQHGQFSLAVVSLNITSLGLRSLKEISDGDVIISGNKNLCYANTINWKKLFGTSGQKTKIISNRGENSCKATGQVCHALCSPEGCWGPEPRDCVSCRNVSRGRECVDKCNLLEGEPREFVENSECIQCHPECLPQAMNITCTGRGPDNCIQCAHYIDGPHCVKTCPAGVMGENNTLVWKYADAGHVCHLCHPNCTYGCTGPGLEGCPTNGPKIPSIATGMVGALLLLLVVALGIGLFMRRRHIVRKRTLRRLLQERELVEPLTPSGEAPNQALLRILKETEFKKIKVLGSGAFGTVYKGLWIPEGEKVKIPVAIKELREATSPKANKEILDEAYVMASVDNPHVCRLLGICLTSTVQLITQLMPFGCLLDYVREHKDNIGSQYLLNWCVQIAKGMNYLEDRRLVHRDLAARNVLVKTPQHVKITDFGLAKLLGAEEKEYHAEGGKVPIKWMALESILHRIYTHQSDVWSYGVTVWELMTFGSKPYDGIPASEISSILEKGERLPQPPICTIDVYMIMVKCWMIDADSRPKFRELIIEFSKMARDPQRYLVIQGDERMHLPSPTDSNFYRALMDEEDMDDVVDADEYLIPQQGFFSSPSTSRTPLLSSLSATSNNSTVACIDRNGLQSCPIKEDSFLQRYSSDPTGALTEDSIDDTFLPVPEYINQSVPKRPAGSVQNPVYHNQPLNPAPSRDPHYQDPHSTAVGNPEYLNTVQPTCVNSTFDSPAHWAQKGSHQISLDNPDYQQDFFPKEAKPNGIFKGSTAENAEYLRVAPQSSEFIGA

Compound | IC50 (EGFR WT (wild type EGFR)) [µM] | IC50 (EGFR L858R/T790M/C797S) [µM] | IC50 (A431 cells (EGFR WT)) [µM] | IC50 [1] [µM] | IC50 [2] [µM] | Body weight change (%) ([3]; 15 mg/kg po) | TGI (%) ([3]; 15 mg/kg po) | Tumor volume (mm^3) ([3]; 15 mg/kg po) | Body weight change (%) ([3]; 35 mg/kg po) | TGI (%) ([3]; 35 mg/kg po) | Tumor volume (mm^3) ([3]; 35 mg/kg po, P < 0.01 vs G1) | Tolerability in mice (in words) [3] | Body weight change (%) ([3]; 60 mg/kg po) | TGI (%) ([3]; 60 mg/kg po) | Tumor volume (mm^3) ([3]; 60 mg/kg po, P < 0.01 vs G1)
COc1cc2c(cc1Nc1ncc(Br)c(Nc3ccccc3P(C)(C)=O)n1)-c1cnn(C)c1CCN2C(C)C [Compound 27] | 0.001 to 0.01 | < 0.001 | 0.1 to 1 | < 0.01 | < 0.01 | 7.0 | 50.6 | 617.6 ± 110.7 | −1.7 | 88.1 | 253.0 ± 58.5** mm^3 | well tolerated |  |  | 
COc1cc2c(cc1Nc1ncc(Br)c(Nc3ccc4nccnc4c3NS(C)(=O)=O)n1)-c1cnn(C)c1CCN2C(C)C [Compound 53] | < 0.001 | < 0.001 | 0.1 to 1 | < 0.01 | < 0.01 | 0 | 55.9 | 565.8 ± 82.0 |  |  |  | well tolerated | 6.8 | 102.0 | 117.0 ± 16.1** mm^3
